Data set [1] in a line: Liver microsome metabolic stability, human. Type of data set: in vitro ADME. Conditions: human liver microsomes, 45 min incubation. How it is done: Purpose: This experiment investigates the metabolic stability of the compound in liver microsomes of different species such as humans, mice and rats, and the residual content of the test compound after incubation with liver microsomes of different species such as humans, mice and rats.
Preparation of 500 μM solution of target compound and positive control: 5 μL of each 10 mM stock solution was taken, added to 95 μL acetonitrile, and mixed for 30 s;
Preparation of 6 mM NADPH solution: 100 mM Stock aliquot liquid was diluted with Mg-Mg —K-Buffer.
2.1.1 Liver microsome solution: 18.75 μL of 20 mg/mL HLM, RLM, MLM, DLM, MOLM (final concentration: 0.5 mg/ml) were taken and placed them in each well of a 96-well plate;
2.1.2 1.5 μL of 500 μM solution of each compound was added respectively;
2.1.3 479.8 μL of phosphate buffer was taken, then added to each compound well, and mixed at 1000 rpm in an oscillating mixer for 10 s.
30 μL of the above samples were taken and aliquoted to a new 96-well plates respectively (including NADPH group, n=2, and no NADPH group at 0 and 45 min, n=1), marked as 0, 5, 15, 30 and 45 min; […]
The slope was calculated based on the LN value of the compound concentration percentage and time as the coordinate axis, and the residual content of the compound after incubation with liver microsomes was calculated based on the slope and formula. […]

The target of data set [2] is T1, hERG ion channel (Homo sapiens, UniProt Q12809).
T1 construct: host or cells: HEK293
T1 sequence (Q12809 whole entry): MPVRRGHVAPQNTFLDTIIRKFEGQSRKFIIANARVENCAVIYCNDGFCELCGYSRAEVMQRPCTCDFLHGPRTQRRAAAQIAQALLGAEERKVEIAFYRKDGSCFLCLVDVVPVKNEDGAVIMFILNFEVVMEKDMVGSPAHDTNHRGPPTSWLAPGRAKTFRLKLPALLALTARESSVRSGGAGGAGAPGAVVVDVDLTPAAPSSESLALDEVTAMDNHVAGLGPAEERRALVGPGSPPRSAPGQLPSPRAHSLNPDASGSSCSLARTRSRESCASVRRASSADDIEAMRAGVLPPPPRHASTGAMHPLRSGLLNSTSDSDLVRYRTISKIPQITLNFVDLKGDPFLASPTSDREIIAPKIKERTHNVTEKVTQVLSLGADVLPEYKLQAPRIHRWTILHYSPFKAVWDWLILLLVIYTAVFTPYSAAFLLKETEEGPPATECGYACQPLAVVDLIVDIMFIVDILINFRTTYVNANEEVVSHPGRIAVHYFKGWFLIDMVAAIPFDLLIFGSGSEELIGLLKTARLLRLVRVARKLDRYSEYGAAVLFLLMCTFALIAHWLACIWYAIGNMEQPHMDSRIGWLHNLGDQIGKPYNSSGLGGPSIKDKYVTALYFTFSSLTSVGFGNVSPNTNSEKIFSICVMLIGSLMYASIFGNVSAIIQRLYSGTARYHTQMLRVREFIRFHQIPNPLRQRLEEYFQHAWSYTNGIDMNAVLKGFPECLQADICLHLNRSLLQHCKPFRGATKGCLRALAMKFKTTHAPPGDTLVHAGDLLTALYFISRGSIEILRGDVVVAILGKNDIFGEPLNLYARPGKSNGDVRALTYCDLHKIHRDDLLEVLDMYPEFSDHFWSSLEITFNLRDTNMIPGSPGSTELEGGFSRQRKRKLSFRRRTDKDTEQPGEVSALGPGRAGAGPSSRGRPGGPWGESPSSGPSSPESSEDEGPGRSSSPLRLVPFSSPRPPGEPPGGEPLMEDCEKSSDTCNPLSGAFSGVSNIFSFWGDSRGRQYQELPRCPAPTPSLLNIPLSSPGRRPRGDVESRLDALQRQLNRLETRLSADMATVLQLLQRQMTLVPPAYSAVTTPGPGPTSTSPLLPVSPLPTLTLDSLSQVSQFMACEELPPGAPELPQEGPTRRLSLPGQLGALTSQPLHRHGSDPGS
Kind of data set: hERG ion channel inhibition, manual patch clamp in HEK293 cells. Type of data set: cell-based. To be noted: HEK293 cells stably expressing hERG, read-out: hERG(IC50, manupatch). How it is done:
This experiment used manual patch clamp electrophysiology to detect the inhibitory effect of compounds on hERG ion channels, and evaluated cardiac safety based on the single concentration inhibition rate or IC50 size of the compounds.
The cells used in this experiment are HEK293 cell lines transfected with hERG cDNA and stably expressing hERG channels (#60187, provided by BPS, P3-P23 generations are used for experimental research). Cells were cultured in a medium containing the following components: MEM medium, 10% (v/v) inactivated fetal bovine serum, 1 mM sodium pyruvate, […] geneticin, 0.1 mM non-essential amino acids, and 100 U penicillin-streptomycin. HEK293 hERG cells were grown in culture flasks containing the above culture medium and cultured in an incubator at 37° C. and 5% CO2. […]
The electrophysiological experiments were performed by a manual patch clamp system (HEKAEPC-10 signal amplifier and digital conversion system, purchased from HEKA Electronics, Germany) to record the whole-cell current. […] After the hERG current recorded in the above steps reaches stability under continuous perfusion of extracellular fluid in the recording tank, different concentrations of the test compound can be perfused until the inhibitory effect of the drug on the hERG current reaches a stable state. […]
(In general: Block of hERG is tested as a sign of cardiac risk.)

The structures appear in SMILES notation. A value given as a limit tells only on which side of the number the result lay.

Broadly, the IC50 is the midpoint of a concentration-inhibition curve. For the molecule `CC(=O)N1CCOC[C@H]1CNc1nc2nc(-c3c(C)cc(C(F)(F)F)cc3O)ccc2o1` [Compound 111], the “LMS (h)(% rem, 45 min)” value in data set [1] was determined as 93.24 % rem. The IC50 in data set [2] is above 30 µM.
